Reference: patent publication US5041355A, “High contrast photographic element including an aryl sulfonamidophenyl hydrazide containing ethyleneoxy groups” (Eastman Kodak Company, priority 1990, dated 1991)

Experiment: relative speed and contrast of silver halide coatings containing nucleator and incorporated booster, exposed and processed in developer
Conditions: for Relative Speed: 1 minute at 35° C., developer pH 10.5; for lower scale activity (speed): in words
Experimental: Each coating used in the following examples was prepared on a polyester support, using a mono-dispersed 0.24 μm AgBrI (2.5 mol % iodide) iridium-doped emulsion at 3.51 g/m^2 Ag, 2.54 g gel/m^2, and 1.08 g latex/m^2 where the latex is a copolymer of methyl acrylate, 2-acrylamido-2-methylpropane sulfonic acid, and 2-acetoacetoxyethylmethylacrylate. The silver halide emulsion was spectrally sensitized with 214 mg/Ag mol of anhydro-5,5'-dichloro-9-ethyl-3,3'-di-(3-sulfopropyl)oxacarbocyanine hydroxide, triethylene salt and the emulsion layer was overcoated with gelatin containing polymethylmethacrylate beads. The nucleating agent was added as a methanol solution to the emulsion melts at a level in millimoles (mM) per mole of silver as hereinafter indicated. An "incorporated booster" was added as a methanol solution in an amount of 64.6 milligrams per square meter of photographic element. The compound employed as the "incorporated booster" is represented by the formula: [drawing 8] where Pr represents n-propyl. Coatings were exposed for five seconds to a 3000° K. tungsten light source and processed for 1 minute at 35° C. in the developer solution.
To prepare the developer solution, a concentrate was prepared from the following ingredients:
The concentrate was diluted at a ratio of one part of concentrate to two parts of water to produce a working strength developing solution with a pH of 10.5.

[1] = concentration of nucleator 1.0 mM/Ag mole
[2] = concentration of nucleator 2.0 mM/Ag mole

SMILES	Relative Speed [1]	Relative Speed [2]	speed compared with Test 2 (Test 7 (1.0 mM/Ag mole) versus Test 2 (2.0 mM/Ag mole))	lower scale activity (speed)	Relative Speed (concentration of nucleator 1.9 mM/Ag mole)
CCCCCCCCOCCOCCOc1ccc(S(=O)(=O)Nc2ccc(NNC=O)cc2)cc1 [reference compound]	87	93	–	–	–
CCCCCCCOCCOCCOCCOCCOCCOCCOCCOCCOCCOc1ccc(S(=O)(=O)Nc2ccc(NNC=O)cc2)cc1 [hydrazide I-4]	105	110	somewhat greater speed	beneficial effects upon lower scale activity (speed)	–
CC(C)c1ccc(C(C)C)c(S(=O)(=O)Nc2ccc(NNC=O)cc2)c1 [reference compound]	87	100	–	–	–
CCCCCOCCOCCOCCOCCOc1ccc(S(=O)(=O)Nc2ccc(NNC=O)cc2)cc1OCCOCCOCCOCCOCCCCC [hydrazide I-8]	98	–	–	beneficial effects upon lower scale activity (speed)	105
